According to patent US7964609B2, “Use of mGluR5 antagonists for the treatment of gerd” (AstraZeneca AB, priority 2002, dated 2011):

Test system: transient lower esophageal sphincter relaxations (TLESRs)
Assay: Screening for compounds active against TLESR, Barostat model (air infusion to an intragastric pressure of 10±1 mmHg)
Type: in vivo, Adult Labrador retrievers
Settings: dose 1 μmol/kg/h, infusion during 60 min
Description: Adult Labrador retrievers of both genders, trained to stand in a Pavlov sling, are used. Mucosa-to-skin esophagostomies are formed and the dogs are allowed to recover completely before any experiments are done. In brief, after fasting for approximately 17 h with free supply of water, a multilumen sleeve/sidehole assembly ([…], Adelaide, South Australia) is introduced through the esophagostomy to measure gastric, lower esophageal sphincter (LES) and esophageal pressures. The assembly is perfused with water using a low-compliance manometric perfusion pump ([…], Adelaide, South Australia). An air-perfused tube is passed in the oral direction to measure swallows, and an antimony electrode monitored pH, 3 cm above the LES. All signals are amplified and acquired on a personal computer at 10 Hz. When a baseline measurement free from fasting gastric/LES phase III motor activity has been obtained, placebo (0.9% NaCl) or test compound is administered intravenously (i.v., 0.5 ml/kg) in a foreleg vein. […] Immediately following the meal, air is insufflated at 40 ml/min. In an alternative model (Barostat model), the infusion of the nutrient meal is followed by air infusion at a rate of 500 ml/min until a intragastric pressure of 10±1 mmHg is obtained. […]

## N#Cc1cc(F)cc(-c2nc(-c3ccc(F)cn3)no2)c1 [3-fluoro-5-[3-(5-fluoropyridin-2-yl)-1,2,4-oxadiazol-5-yl]benzonitrile]
  % INHIBITION ± SEM (N): 70 ± 4 (3) %
